From patent US4824836A, “Spiro (4,5) decone compounds” (Adir et Compagnie, priority 1987, dated 1989)

Test system: Peritoneal rat mastocytes
Assay: mastocyte degranulation test in vitro (inhibition of compound 48/80-induced histamine granule release)
Type: cell-based
Conditions: rat peritoneal mastocytes incubated with compound 48/80; dose that inhibits histamine granule release by 50%
Experimental: The compounds of the invention and fenspiride, a prior art product taken as reference substance, were subjected to the mastocyte degranulation test:
Peritoneal rat mastocytes are incubated in vitro in the presence of compound 48/80, which causes histamine granules to be released. The protective effect of the tested compounds is expressed in IC50, that is to say the (molar) dose that inhibits this release by 50%.

| SMILES | IC50 [µM] | Mastocyte degranulation in vitro - IC50 |
| --- | --- | --- |
| CCCc1c(OCCCCCCN2CCC3(CC2)CNC(=O)O3)ccc(C(C)=O)c1O [Example 1e, 8-[6-(2-propyl-3-hydroxy-4-acetylphenoxy)hexyl]-1-oxa-2-oxo-3,8-diaza-spiro[4.5]decane] | 92 | – |
| CCCc1c(OCCCN2CCC3(CC2)OC(=O)NC3C)ccc(C(C)=O)c1O (centres unmarked) [Example 2, 8-[3-(2-propyl-3-hydroxy-4-acetylphenoxy)propyl]-1-oxa-2-oxo-3,8-diaza-4-methyl-spiro[4.5]decane] | 200 | – |
| CCCc1c(OCCN2CCC3(CC2)OC(=O)NC3C)ccc(C(C)=O)c1O (centres unmarked) [Example 1f, 8-[2-(2-propyl-3-hydroxy-4-acetylphenoxy)ethyl]-1-oxa-2-oxo-3,8-diaza-4-methyl-spiro[4.5]decane] | 100 | – |
| C=CCc1c(OCCCN2CCC3(CC2)CN(C(C)=O)C(=O)O3)ccc(C(C)=O)c1O [Example 5, 8-[3-(2-allyl-3-hydroxy-4-acetylphenoxy)propyl]-1-oxa-2-oxo-3,8-diaza-3-acetyl-spiro[4.5]decane] | 750 | – |
| O=C1NCC2(CCN(CCc3ccccc3)CC2)O1 [fenspiride, reference compound] | – | inactive |
| CCCc1c(OCCCN2CCC3(CC2)CNC(=O)O3)ccc(C(C)=O)c1O [Example 1, 8-[3-(2-propyl-3-hydroxy-4-acetylphenoxy)propyl]-1-oxa-2-oxo-3,8-diaza-spiro[4.5]decane] | 240 | – |
| CCCc1c(OCCN2CCC3(CC2)CNC(=O)O3)ccc(C(C)=O)c1O [Example 1a, 8-[2-(2-propyl-3-hydroxy-4-acetylphenoxy)ethyl]-1-oxa-2-oxo-3,8-diaza-spiro[4.5]decane] | 200 | – |
| CCc1c(OCCCN2CCC3(CC2)CNC(=O)O3)ccc(C(C)=O)c1O [Example 1k, 8-[3-(2-ethyl-3-hydroxy-4-acetylphenoxy)propyl]-1-oxa-2-oxo-3,8-diaza-spiro[4.5]decane] | 830 | – |
| CCc1c(OCCCN2CCC3(CC2)CN(C(C)=O)C(=O)O3)ccc(C(C)=O)c1OC(C)=O [Example 4c, 8-[3-(2-ethyl-3-acetoxy-4-acetylphenoxy)propyl]-1-oxa-2-oxo-3,8-diaza-3-acetyl-spiro[4.5]decane] | > 1000 | – |
| CC(=O)Oc1c(C(C)=O)ccc(OCCCN2CCC3(CC2)CN(C(C)=O)C(=O)O3)c1CC(C)C [Example 4d, 8-[3-(2-isobutyl-3-acetoxy-4-acetylphenoxy)propyl]-1-oxa-2-oxo-3,8-diaza-3-acetyl-spiro[4.5]decane] | 730 | – |
| CCCc1c(OCCCN2CCC3(CC2)CNC(=O)O3)ccc2c(=O)cc(C(=O)O)oc12 [Example 3, 8-[3-(2-carboxy-8-propyl-7-chrom-4-onyloxy)propyl]-1-oxa-2-oxo-3,8-diaza-spiro[4.5]decane] | 1000 | – |
| CCCc1c(OCCCN2CCC3(CC2)CNC(=O)O3)ccc2c1OCCC2=O [Example 1j] | 100 | – |
| C=CCc1c(OCCCN2CCC3(CC2)CN(C(C)=O)C(=O)O3)ccc(C(C)=O)c1OC(C)=O [Example 4a, 8-[3-(2-allyl-3-acetoxy-4-acetylphenoxy)propyl]-1-oxa-2-oxo-3,8-diaza-3-acetyl-spiro[4.5]decane] | 2500 | – |
| CC(=O)c1ccc(OCCCN2CCC3(CC2)CNC(=O)O3)c(CC(C)C)c1O [Example 1l, 8-[3-(2-isobutyl-3-hydroxy-4-acetylphenoxy)propyl]-1-oxa-2-oxo-3,8-diaza-spiro[4.5]decane] | 116 | – |
| CCCc1c(OCCCN2CCC3(CC2)CNC(=O)O3)ccc(C(C)=O)c1OC(C)=O [Example 6, 8-[3-(2-propyl-3-acetoxy-4-acetylphenoxy)propyl]-1-oxa-2-oxo-3,8-diaza-spiro[4.5]decane] | 1200 | – |
| CCCc1c(OCCCCCN2CCC3(CC2)CNC(=O)O3)ccc(C(C)=O)c1OC(C)=O [Example 6a, 8-[5-(2-propyl-3-acetoxy-4-acetylphenoxy)pentyl]-1-oxa-2-oxo-3,8-diaza-spiro[4.5]decane] | 2000 | – |
| CCCc1c(OCCCCCN2CCC3(CC2)CNC(=O)O3)ccc(C(C)=O)c1O [Example 1d, 8-[5-(2-propyl-3-hydroxy-4-acetylphenoxy)pentyl]-1-oxa-2-oxo-3,8-diaza-spiro[4.5]decane] | 110 | – |
| C=CCc1c(OCCCN2CCC3(CC2)CNC(=O)O3)ccc(C(C)=O)c1O [Example 1h, 8-[3-(2-allyl-3-hydroxy-4-acetylphenoxy)propyl]-1-oxa-2-oxo-3,8-diaza-spiro[4.5]decane] | 250 | – |
| CCCc1c(OCCCN2CCC3(CC2)CNC(=O)O3)ccc2c(=O)cc(C(=O)OCC)oc12 [Example 1i, 8-[3-(2-ethoxycarbonyl-8-propyl-7-chrom-4-onyloxy)propyl]-1-oxa-2-oxo-3,8-diaza-spiro[4.5]decane] | 100 | – |
| CCCc1c(OCCCCCN2CCC3(CC2)CN(C(C)=O)C(=O)O3)ccc(C(C)=O)c1OC(C)=O [Example 4b, 8-[5-(2-propyl-3-acetoxy-4-acetylphenoxy)pentyl]-1-oxa-2-oxo-3,8-diaza-3-acetyl-spiro[4.5]decane] | 1000 | – |
| CCCc1c(OCCCCN2CCC3(CC2)CNC(=O)O3)ccc(C(C)=O)c1O [Example 1b, 8-[4-(2-propyl-3-hydroxy-4-acetylphenoxy)butyl]-1-oxa-2-oxo-3,8-diaza-spiro[4.5]decane] | 200 | – |
| CCCc1c(OCCCN2CCC3(CC2)CN(C(C)=O)C(=O)O3)ccc(C(C)=O)c1OC(C)=O [Example 4, 8-[3-(2-propyl-3-acetoxy-4-acetylphenoxy)propyl]-1-oxa-2-oxo-3,8-diaza-3-acetyl-spiro[4.5]decane] | 720 | – |
| CCCc1c(OCC(O)CN2CCC3(CC2)CNC(=O)O3)ccc(C(C)=O)c1O (centres unmarked) [Example 1c, 8-[3-(2-propyl-3-hydroxy-4-acetylphenoxy)-2-hydroxypropyl]-1-oxa-2-oxo-3,8-diaza-spiro[4.5]decane] | 1000 | – |
